What was measured:
[1] = test system: DSS-induced acute enteritis mouse model; experiment: Oral efficacy in DSS-induced acute enteritis mouse model; type: in vivo, C57BL/6 mice; conditions: acute enteritis (DSS), mouse
Procedure: (§1) C57BL/6 mice aged 7-8 weeks were purchased from OrientBio (Korea), stabilized with general solid feed for 7 days, and then used in this experiment. Feed and water were freely supplied during the experiment period, and the temperature of the breeding room was maintained at 25±1° C. and the relative humidity at 50±10%. Lighting management was controlled in a 12-hour light-dark cycle by an automatic lighting controller.
(§2) Enteritis was induced in mice by allowing them to freely ingest drinking water containing 2% DSS salt (M.W. 36,000˜50,000, MP Biomedicals, LLC, OH, USA). For the chronic enteritis model, DSS was administered using a schedule of DSS administration for the first 7 days, administration of normal drinking water for 14 days, repeated administration of DSS for 7 days from the 21st day, and administration of normal drinking water for 7 days. The drug was administered once a day, 6 days a week from the first day of DSS treatment (FIG. 2A). […] In order to measure the dose-dependent therapeutic effect of the drug in the acute enteritis model, DSS was administered for 5 days to induce enteritis, and then the drug was administered for 14 days to measure the degree of recovery and treatment of enteritis (FIG. 3A). The drug was administered orally once daily for […] at a fixed time.
(§3) Changes in body weight of each mouse were observed during the DSS and drug administration using a digital mass meter.
(§4) The colon of the mouse was extracted, and the length and weight from the anus to the cecum were measured.
The degree of neutrophil infiltration in the tissue was measured by the amount of MPO, a neutrophil marker enzyme. The colon tissue with a size of 1 cm was washed with cold PBS and weighed, to which a lysis buffer (pH7.4, 200 mM NaCl, 5 mM EDTA, 10 mM tris, 10% glycerin, 1 mM PMSF, 1 μg/mL leupeptin and 28 μg/mL aprotinin) was added (500 μL of per 10 mg of tissue weight), and then homogenized using Bead Blaster® D2400 homogenizer (Benchmark Scientific, NJ, USA). […] (HK210, Hycult Biotechnology, Netherlands). The supernatant was added to a 96 well plate (100 μL/well) coated with an anti-mouse MPO antibody, and incubated for 1 hour at room temperature, followed by washing 3 times with a washing buffer. A reconstituted tracer was added to the plate (100 μL/well), which was reacted at room temperature for 1 hour, washed 3 times, and then 100 μL of streptavidin-peroxidase conjugate was added to each well of the plate. The plate was reacted at room temperature for 1 hour, washed, and 100 μl of TMB substrate solution was added to each well of the plate, followed by reaction for 30 minutes. The reaction was terminated by adding 100 μL of a stop solution to each well of the plate, and absorbance was measured at 450 nm. MPO activity means the amount of 1 μM […] at 25° C. for 1 minute. This was calculated as the amount of MPO contained in 1 mL of the colon tissue homogenate.
(§5) Tissue staining was performed in the same manner as in the case of hematoxylin/eosin staining of the rat colon tissue, and scoring indexes of mucosal damage and recovery were applied in the same way.

[2] = test system: TNBS-induced inflammatory bowel disease rat model; experiment: Oral efficacy in TNBS-induced inflammatory bowel disease rat model; type: in vivo, Sprague Dawley rats
Procedure: as §1, with “Sprague Dawley rats aged” for “C57BL/6 mice aged”, “for 3” for “for 7”
After anesthetizing rats that had been fasted for 24 hours with diethyl ether, 0.8 mL of 5% TNBS diluted with 50v/v % ethanol was slowly injected into the lumen of the colon using a 1 mL syringe connected to a polyethylene catheter, and then, the rats were left standing for 60 seconds in an inverted position in order to prevent 5% TNBS from leaking into the anus. For the control group, only vehicle [50v/v % ethanol] was injected in the same manner as in the other groups (Thapa et al., 2008).
In order to investigate the effect of the drug, the drug was administered at a constant time every day for 5 days from the day after the TNBS treatment.
Changes in body weight of each rat were observed from the fasting stage to the TNBS administration and drug administration process using a digital mass meter.
The colon of the rat was extracted, and the tissue 5-6 cm away from the anus was cut into a length of 1 cm, and the weight of the tissue was measured.
The weighed rat tissues were fixed with 4% paraformaldehyde solution, and then transferred to 30% sucrose solution. When the tissues subside, they were taken out and cut into […] thick using a cryomicrotome (Microm HM 450, Thermo Fisher Scientific, Germany) and stored in a cryopreservation solution. After washing the tissue section with KPBS, the tissue section was attached to a slide glass, dried, and then stained with hematoxylin & Eosin and observed under a microscope.

[3] = test system: DSS-induced chronic enteritis mouse model; experiment: Oral efficacy in DSS-induced chronic enteritis mouse model; type: in vivo, C57BL/6 mice; conditions: for Morphological observation of colon (length, macroscopic symptoms, adhesions, congestion): DSS mouse, sulfasalazine 300 mg/kg, tofacitinib 30 mg/kg, FIG. 2C; for Body weight recovery rate (%) / Intestinal weight recovery rate (%): chronic enteritis (DSS-water-DSS, total 35 days), mouse
Procedure: as §1, §2, §3, §4, §5

[4] = test system: collagen-induced rheumatoid arthritis animal model; experiment: Oral efficacy in collagen-induced rheumatoid arthritis (CIA) mouse model; type: in vivo, DBA/1J mice; conditions: oral, up to 35 days, FIG. 5A
Procedure: 12-week-old normal male mice and arthritis-induced DBA/1J mice were purchased from Central Lab. Animal Inc [To induce arthritis, DBA/1J mice were sensitized by injecting a mixed solution of Complete Freund's Adjuvant (CFA; DIFCO, Detroit, MI) and Bovine Type II collagen (1:1, v/v) intradermally at the pinna base at 8 weeks of age, and then, secondary sensitization was performed by intradermal injection at the tail head at 11 weeks of age]. The purchased arthritis mice were acclimatized to the laboratory environment for a week, and then oral administration of the drug was started.
Visual observation of arthritic lesions was performed using the following scores based on a reference (Barnett et al., 1998).
Therefore, the highest score for arthritic lesions was 16 per mouse.
The hind paw thickness, which is one of the pathological indices of rheumatoid arthritis, was measured using a caliper.
The right hind leg of each mouse was extracted, and all skin and muscles were removed, leaving only the bones and joints. The hind leg was fixed in 4% paraformaldehyde solution for 2 days, then immersed in 10% formic acid for 5 days to decalcify, and then immersed in 30% sucrose solution. When the tissue subsided, the articular tissue was cut into […] thick using a cryomicrotome (Microm HM 450, Thermo Fisher Scientific, Germany) and stored in a cryopreservation solution. Staining was performed using the stored tissue sections. After attaching the tissue sections to the slide glass, they were hydrated with 100%, 95%, 70%, and 50% ethanol solutions, and some were stained with safranin and others were stained with hematoxylin/eosin. For safranin staining, the tissue sections were first stained with 0.1% fast green solution, washed with 1% acetic acid solution, and then stained with 1% safranin solution. Thereafter, the tissue sections were dehydrated by immersing in ethanol solutions in the reverse order of hydration, and then preserved in xylene solution and mounting solution, and photographed under a microscope. Hematoxylin/eosin staining was performed in the same manner as in the colon tissue staining. The tissue sections were dehydrated, preserved in xylene solution and mounting solution, and observed under a microscope.
The degree of microscopic tissue damage of the stained articular tissue was measured using the following scores.
After the spleen and draining lymph nodes of the mice were extracted, the number of immune cells was counted. To confirm the distribution of Th1 and Th17 cells, the immune cells obtained from each organ were stimulated using PMA/Ionomycin and Golgi stop.
After staining using an anti-IFN-γ antibody that can identify Th1 cells, an anti-IL-17 antibody that can identify Th17 cells, and an anti-CD8 antibody that can identify cytotoxic T cells, the proportion of inflammatory cells among the total immune cells was confirmed using flow cytometry.

[5] = test system: adhesion of intestinal epithelial cells (HT-29) and monocytic cells (U937) induced by IL-6; experiment: Inhibition of IL-6-induced adhesion of monocytes and intestinal epithelial cells; type: cell-based, human; conditions: Homo sapiens, 3 h; test drug 1 μM; IL-6 10 ng/mL; HT-29/U937; read-out: inhibitory activity (%)
Procedure: The inhibitory activity test for intestinal epithelial cell-monocyte adhesion by IL-6 was performed using the same method as in the case of TNF-α. HT-29 cells were cultured in a 24-well plate at the density of 2×10^5 cells/cm^2, and the test drug was pretreated in a medium containing 1% FBS and 1% PS for 1 hour. Thereafter, 10 μg/mL of BCECF-AM was treated thereto and reacted at 37° C. for 30 minutes. U937 cells loaded with BCECF and IL-6 (10 ng/mL) were reacted with HT-29 cells previously treated with the test drug at 37° C. for 3 hours. Upon completion of the reaction, the medium was removed, and the culture flask was washed twice with PBS to remove non-adherent U937 cells. In the next step, the cells were lysed by treating with 0.1% Triton X-100 (0.1 M Tris) and reacted at room temperature for 30 minutes. Then, fluorescence was measured and quantified using a fluostar optima microplate reader (BMG Labtechnologies, Germany).

[6] = 300 mg/kg, dose-dependence test (Table 7)
[7] = 30 mg/kg, listed as tofacitinib

O=C(O)c1cc(/N=N/c2ccc(S(=O)(=O)Nc3ccccn3)cc2)ccc1O [Sulfasalazine, reference compound] was tested, and the “Body weight recovery rate (%)” value ([1]; 300 mg/kg) was 65.9%, the “Intestinal weight recovery rate (%)” value ([1]; 300 mg/kg) was 66.2% and the “Body weight recovery rate (%)” value [2, 6] was 86.6%. The “Intestinal weight recovery rate (%)” value [2, 6] was 69.6%, the “Morphological observation of colon (visual symptoms, adhesions, congestion)” value ([2]; after 5 days of drug administration, sulfasalazine 300 mg/kg, X-09 0.3-10 mg/kg) was “significantly suppressed” and the “Intestinal weight recovery rate (%)” value ([2]; oral 300 mg/kg, 5 days, fixed-dose test (Table 6)) was 69.6%. For the same compound, the “Body weight recovery rate (%)” value ([2]; oral 300 mg/kg, 5 days, fixed-dose test (Table 6), 300 mg/kg) was 86.6%, the “Body weight recovery rate (%)” value ([2]; oral 300 mg/kg, 5 days, fixed-dose test (Table 6), listed as sulfasalazine, 300 mg/kg) was 50.5% and the “Morphological observation of colon (length, macroscopic symptoms, adhesions, congestion)” value [3] was “significantly suppressed”. The “Body weight recovery rate (%)” value ([3]; 300 mg/kg) was 22.8%, the “Intestinal weight recovery rate (%)” value ([3]; 300 mg/kg) was 66.9% and the “Intestinal weight recovery rate (%)” value ([3]; 300 mg/kg, listed as sulfasalazine) was 67.3%.

C[C@@H]1CCN(C(=O)CC#N)C[C@@H]1N(C)c1ncnc2[nH]ccc12 [Tofacitinib, reference compound] was tested, and the “degree of arthritis (visual observation score)” value [4] was “significantly improved dose dependently”, the “Body weight recovery rate (%)” value ([1]; 30 mg/kg) was 80.8% and the “Intestinal weight recovery rate (%)” value ([1]; 30 mg/kg) was 80.9%. For the same compound, the “Body weight recovery rate (%)” value [1, 7] was 80.9%, the “Morphological observation of colon (length, macroscopic symptoms, adhesions, congestion)” value [3] was “significantly suppressed” and the “Body weight recovery rate (%)” value ([3]; 30 mg/kg) was 29.5%. For the same compound, the “Intestinal weight recovery rate (%)” value ([3]; 30 mg/kg) was 68.2%, the “Body weight recovery rate (%)” value [3, 7] was 29.4% and the “Intestinal weight recovery rate (%)” value [3, 7] was 68.8%. It also gave an inhibition at 1 µM [5] of 49.1%.

From patent publication US12398117B2, “Heteroarylamidopyridinol derivative and pharmaceutical composition comprising same as active ingredient for prevention or treatment of autoimmune disease” (INNOVO THERAPEUTICS INC., priority 2019, dated 2025)
